Laboratory results reported in US20240150346A1, “CLASS OF HETEROAROMATIC COMPOUND, PREPARATION METHOD THEREFOR AND USE THEREOF” (INNOVSTONE THERAPEUTICS LIMITED, priority 2021, published 2024).
Structures can show the parent of a compound that is named as a salt.

Biological target: T1, human-detived receptor TLR8 (Homo sapiens, UniProt Q9NR97)
T1 construct: host or cells: HEK-Blue hTLR8 cells (HEK293-derived reporter line)
T1 sequence (Q9NR97 27-1041): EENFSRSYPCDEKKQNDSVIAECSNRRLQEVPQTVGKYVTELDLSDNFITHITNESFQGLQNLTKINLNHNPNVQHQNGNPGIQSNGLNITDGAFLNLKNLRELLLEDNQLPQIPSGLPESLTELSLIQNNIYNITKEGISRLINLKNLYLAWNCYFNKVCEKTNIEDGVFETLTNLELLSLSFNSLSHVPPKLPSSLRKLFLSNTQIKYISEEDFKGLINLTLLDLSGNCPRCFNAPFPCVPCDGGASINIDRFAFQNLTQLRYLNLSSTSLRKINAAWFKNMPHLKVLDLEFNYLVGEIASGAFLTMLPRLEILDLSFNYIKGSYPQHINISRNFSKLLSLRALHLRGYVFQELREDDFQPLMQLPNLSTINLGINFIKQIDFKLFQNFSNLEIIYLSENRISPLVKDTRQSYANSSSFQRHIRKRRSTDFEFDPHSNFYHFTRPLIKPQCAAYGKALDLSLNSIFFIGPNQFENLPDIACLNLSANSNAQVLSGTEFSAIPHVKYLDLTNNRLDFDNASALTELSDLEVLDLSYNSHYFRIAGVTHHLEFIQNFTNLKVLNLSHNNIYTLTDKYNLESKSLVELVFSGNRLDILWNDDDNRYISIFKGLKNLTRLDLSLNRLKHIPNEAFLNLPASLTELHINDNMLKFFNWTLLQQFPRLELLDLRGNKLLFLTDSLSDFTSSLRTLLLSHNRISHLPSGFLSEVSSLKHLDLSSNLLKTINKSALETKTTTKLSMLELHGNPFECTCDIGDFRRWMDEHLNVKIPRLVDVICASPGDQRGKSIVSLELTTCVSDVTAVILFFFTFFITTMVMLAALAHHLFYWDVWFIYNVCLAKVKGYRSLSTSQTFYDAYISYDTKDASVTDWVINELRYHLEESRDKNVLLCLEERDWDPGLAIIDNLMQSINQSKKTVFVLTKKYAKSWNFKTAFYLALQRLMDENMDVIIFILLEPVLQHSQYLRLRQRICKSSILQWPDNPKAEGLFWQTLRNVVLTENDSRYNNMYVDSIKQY
Assay: Assay on agonistic activity for human-detived receptor TLR8 (HEK-Blue hTLR8 cells, HEK-Blue Detection Medium)
Assay type: cell-based
Settings: 16 h incubation, absorbance at 620 nm
Description: The assay on the agonistic activity for human-detived receptor TLR7 was performed as that in Test Example 1; • the method for assaying the agonistic activity for the human-detived receptor TLR8 was as follows: HEK-Blue™ hTLR8 cells (InvivoGen, hkb-htlr8) were cultured in a DMEM complete medium (Gibco, 11965-092) containing 10% FBS (Invitrogen, 10099-141c), 1% P/S (Invitrogen, 15140-122), 10 μg/mL Blasticidin (InvivoGen, R210-01), 100 μg/mL Zeocin (InvivoGen, ant-zn), and 100 μg/mL Normocin (InvivoGen, Ant-nr-2). The cells were cultured in an incubator at 37° C. with 5% CO2. When HEK-Blue™ hTLR8 cells reached a growth density of 70%-80%, cell passage was needed.
The agonistic activity for the human-detived receptor TLR8 by HEK-Blue™ hTLR8 cells was assayed by HEK-Blue™ Detection Medium (InvivoGen, hb-det3). First, a bag of HEK-Blue™ Detection Medium powder was completely dissolved, and then filtered through a 0.22 μm filter. Antibiotics were then added until the final concentration was 1% P/S and 100 μg/mL Normocin. HEK-Blue™ Detection Medium was pre-heated to 37° C. in advance on the day of the assay on the activity for the TLR8 receptor, and the temperature was always maintained at 37° C.
The compound powder was dissolved in 100% DMSO (Sigma, D8418-1L) to obtain a 10 mM stock solution, and the compound was completely dissolved by shaking with an oscillator for later use.
The cell culture medium was removed from HEK-Blue™ hTLR8 cells with a growth density of 70-80%. Then, the cells were washed 2-3 times with PBS (Gibco, 10010-031). The cells were digested and then pipetted with a DMEM cell culture medium to a single cell suspension, which was then centrifuged at 1000 rpm for 10 min to collect the cell pellet. […] The cells were counted, diluted to a plating density, and transferred to a 384-well cell culture plate (Corning, 3764). […] After incubation in an incubator at 37° C. for 16 h, the absorbance was read at 620 nm using a microplate reader (PerkinElmer, VICTOR Nivo).
The EC50 of the compound was calculated using the GraphPad Prism 8 software (GraphPad Software, USA). The reading of the negative control well (the well without the compound) was subtracted from the absorbance reading at 620 nm of the compound, and was divided by the ratio of the difference between the positive control (1 μM positive compound) and the negative control well, so that the percentage of the ratio of each well to the ratio of the positive control well (the well treated with 10 μM positive compound), i.e., the percentage of activity, was calculated. Finally, the sigmoidal dose-response (variable slope) curve between the percentage of activity and the concentration of the compound was calculated using the software GraphPad Prism to calculate the EC50 of the compound.

SMILES	EC50 [µM]
COc1nc2c(N)nc3ccccc3c2n1Cc1ccc(CN2CCCC2)cc1 [Comparative Example 1, 2-methoxy-1-((4-((pyrrolidin-1-yl)methyl)phenyl)methyl)-1H-imidazo[4,5-c]quinolin-4-amine trifluoroacetate, reference compound]	> 10
CSc1nc2c(N)nc3ccccc3c2n1Cc1ccc(CN2CCCC2)cc1 [Example 40, 2-(methylthio)-1-(4-(pyrrolidin-1-ylmethyl)benzyl)-1H-imidazo[4,5-c]quinoline-4-amine]	> 10
CSc1nc2c(N)nc3ccccc3c2n1Cc1ccc(N2CCN(C)CC2)nc1 [Example 199]	> 10
COc1cc(CN(C)C)ccc1Cn1c(SC)nc2c(N)nc3ccccc3c21 [Example 240]	> 10
